Laboratory results from patent US11498896B2 (The Broad Institute, Inc., priority 2014, dated 2022).

How the values were obtained:
human D2R/β-arrestin [1] = target: T1, human D2R/β-arrestin (Homo sapiens (Human), UniProt P14416); assay: Gi/cAMP agonist assay (Lance Ultra cAMP, forskolin); assay type: cell-based; settings: CHO-K1 cells expressing human D2R/β-arrestin; agonist mode, 2.5 μM forskolin
Description: Eu-cAMP tracer solution (10 μl, PerkinElmer, 360 μl of Tracer in 17.64 ml kit buffer) and ULight-anti-cAMP solution (10 μl, 120 μL antibody in 17.88 ml kit buffer) was then added to each well.

human D2R/β-arrestin [2] = target: T1, human D2R/β-arrestin; assay: β-arrestin agonist assay (PathHunter); assay type: cell-based; settings: CHO-K1 cells expressing human D2R/β-arrestin; agonist mode
Description: The detection reagent (9.6 μL, Buffer:Emerald II:Galactor-Star in a 19:5:1 ratio, i.e., 14.06 mL:3.7 mL:0.74 mL=18.5 mL) was then added to the agonist plates.

human D2R/β-arrestin [3] = target: T1, human D2R/β-arrestin; assay: cell-based; settings: β-arrestin Antagonist, CHO-K1 cells expressing human D2R/β-arrestin; antagonist mode, quinpirole 130 nM
human D2R/β-arrestin [4] = target: T1, human D2R/β-arrestin; assay: cell-based; settings: cAMP Antagonist, CHO-K1 cells expressing human D2R/β-arrestin; antagonist mode, 2.5 μM forskolin and 2.7 nM quinpirole

T1 sequence (P14416 whole entry): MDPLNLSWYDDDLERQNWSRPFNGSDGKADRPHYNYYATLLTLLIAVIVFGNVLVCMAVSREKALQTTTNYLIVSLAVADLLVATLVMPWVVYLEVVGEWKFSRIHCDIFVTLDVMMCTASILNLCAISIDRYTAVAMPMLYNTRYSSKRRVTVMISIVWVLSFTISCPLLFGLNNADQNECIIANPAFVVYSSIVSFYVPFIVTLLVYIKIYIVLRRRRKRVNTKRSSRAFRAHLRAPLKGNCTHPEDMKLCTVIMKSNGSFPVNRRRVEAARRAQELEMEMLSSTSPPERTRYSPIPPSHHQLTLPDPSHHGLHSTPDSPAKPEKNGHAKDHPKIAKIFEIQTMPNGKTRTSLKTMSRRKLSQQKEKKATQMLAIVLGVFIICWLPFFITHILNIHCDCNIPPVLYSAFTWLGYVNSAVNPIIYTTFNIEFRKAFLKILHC

Row | EC50 (human D2R/β-arrestin [1]) [nM] | EC50 (human D2R/β-arrestin [2]) [nM] | IC50 (human D2R/β-arrestin [3]) [nM] | IC50 (human D2R/β-arrestin [4]) [nM] | Structure (SMILES)
1 | > 30000 | > 30000 | 10000 to 30000 | 100 to 1000 | Clc1ccc2c(c1)C[C@@H]1CN(CCOc3ccccc3)C[C@H]1O2 [Compound 145, (3aS,9aR)-7-chloro-2-(2-phenoxyethyl)-1,2,3,3a,9,9a-hexahydrochromeno[2,3-c]pyrrole]
2 | < 100 | 100 to 1000 | 1000 to 10000 | > 30000 | C#CC1(Oc2ccccc2)CCN(CCOc2ccccc2C(F)(F)F)CC1 [Compound 194, 4-ethynyl-4-phenoxy-1-(2-(2-(trifluoromethyl)phenoxy)ethyl)piperidine]
3 | 1000 to 10000 | > 30000 | 100 to 1000 | < 100 | CC1(Oc2ccc(Cl)cc2)CCN(CCOc2ncccc2C(F)(F)F)CC1 [Compound 162, 2-(2-(4-(4-chlorophenoxy)-4-methylpiperidin-1-yl)ethoxy)-3-(trifluoromethyl)pyridine]
4 | > 30000 | > 30000 | < 100 | < 100 | CC1(OCc2ccccc2)CCN(CCOc2ccccc2C(F)(F)F)CC1 [Compound 126, 4-(Benzyloxy)-4-methyl-1-(2-(2-(trifluoromethyl)phenoxy)ethyl) piperidine]
5 | 10000 to 30000 | > 30000 | 10000 to 30000 | > 30000 | FC(F)(F)c1ccccc1OCCN1CCC2(CC1)CC2c1ccc(Cl)cc1 (single isomer, unassigned) [Compound 216b, 1-(4-chlorophenyl)-6-(2-(2-(trifluoromethyl)phenoxy)ethyl)-6-azaspiro[2.5]octane]
6 | < 100 | > 30000 | 100 to 1000 | 100 to 1000 | CC1(Oc2ccccc2)CCN(CCCc2ccccc2C(F)(F)F)CC1 [Compound 118, 4-Methyl-4-phenoxy-1-(3-(2-(trifluoromethyl)phenyl)propyl)piperidine]
7 | > 30000 | > 30000 | 1000 to 10000 | 100 to 1000 | CC1(Oc2ccc(Cl)cc2)CCN(CCOc2cccc(C(F)(F)F)c2)C1 (stereo not shown) [Compound 13, 3-(4-chlorophenoxy)-3-methyl-1-(2-(3-(trifluoromethyl)phenoxy)ethyl) pyrrolidine]
8 | > 30000 | > 30000 | 1000 to 10000 | 100 to 1000 | CC1(Oc2cccc(C(F)(F)F)c2)CCN(CCOc2ccccc2Cl)C1 (stereo not shown) [Example 65, 1-(2-(2-Chlorophenoxy)ethyl)-3-methyl-3-(3-(trifluoromethyl)phenoxy) pyrrolidine]
9 | 100 to 1000 | > 30000 | 1000 to 10000 | 100 to 1000 | CC(C)Oc1ccc(F)cc1OCCN1CCC(C)(Oc2ccc(Cl)cc2)CC1 [Compound 190, 4-(4-chlorophenoxy)-1-(2-(5-fluoro-2-isopropoxyphenoxy)ethyl)-4-methylpiperidine]
10 | > 30000 | > 30000 | 1000 to 10000 | 100 to 1000 | CC1(Oc2ccc(Cl)cc2)CCN(CCCOc2ccccc2)C1 (stereo not shown) [Compound 4, 3-(4-chlorophenoxy)-3-methyl-1-(3-phenoxypropyl)pyrrolidine]
11 | > 30000 | > 30000 | > 30000 | > 30000 | CC1(Oc2ccc(Cl)cc2)CCN(CCn2cccc(C(F)(F)F)c2=O)CC1 [Compound 195, 1-(2-(4-(4-chlorophenoxy)-4-methylpiperidin-1-yl)ethyl)-3-(trifluoromethyl)pyridin-2(1H)-one]
12 | 1000 to 10000 | > 30000 | 100 to 1000 | 100 to 1000 | CC1(Oc2ccccc2)CCN(CCOc2ccccc2S(C)(=O)=O)CC1 [Compound 141, 4-methyl-1-(2-(2-(methylsulfonyl)phenoxy)ethyl)-4-phenoxypiperidine]
13 | > 30000 | > 30000 | 1000 to 10000 | 100 to 1000 | CC1(Oc2ccc(Cl)cc2)CCN(CCCc2ccccc2)C1 (stereo not shown) [Compound 26, 3-(4-chlorophenoxy)-3-methyl-1-(3-phenylpropyl)pyrrolidine]
